Read-outs that look alike come from different tables or passages of the source. Positions of bridges follow the written chain, without caps; N, C: chain ends. No end group written: not given here.
Columns and labels:
hASIC1b = target: T1, hASIC1b (Homo sapiens, UniProt P78348); assay: TEVC in Xenopus laevis oocytes expressing hASIC1b; assay type: cell-based; conditions: for remaining activity at 1 µM: 1 µM peptide, conditioning pH 7.45, mean, n ≥ 5, read-out: I/Icontrol
T1 construct: expressed in transfected cells; host or cells: Xenopus laevis oocytes (cRNA injection)
T1 sequence (P78348 1-562 isoform P78348-3): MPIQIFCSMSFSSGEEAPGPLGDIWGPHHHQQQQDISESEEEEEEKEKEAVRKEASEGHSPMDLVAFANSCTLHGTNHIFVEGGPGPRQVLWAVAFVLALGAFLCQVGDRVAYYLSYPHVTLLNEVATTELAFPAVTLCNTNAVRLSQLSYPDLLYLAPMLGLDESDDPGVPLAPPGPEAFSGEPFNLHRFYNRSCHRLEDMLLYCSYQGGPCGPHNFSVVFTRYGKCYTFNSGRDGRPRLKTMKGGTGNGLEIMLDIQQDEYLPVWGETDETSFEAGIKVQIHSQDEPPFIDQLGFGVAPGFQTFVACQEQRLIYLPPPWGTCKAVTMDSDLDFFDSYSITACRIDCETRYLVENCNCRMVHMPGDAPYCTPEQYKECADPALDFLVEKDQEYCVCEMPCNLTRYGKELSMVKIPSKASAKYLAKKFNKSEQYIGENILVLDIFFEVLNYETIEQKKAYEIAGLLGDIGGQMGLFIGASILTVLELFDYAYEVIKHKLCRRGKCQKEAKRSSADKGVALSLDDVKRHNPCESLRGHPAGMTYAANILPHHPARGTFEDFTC
Protocol: (§1) Two-electrode voltage-clamp (TEVC) experiments using Xenopus laevis oocytes were conducted as previously described. Briefly, oocytes were surgically removed from anaesthetised female frogs, then treated with collagenase (~ 1 mg/ml, Sigma type I) for 2 h under agitation at room temperature. cRNAs were synthesised using a mMessage mMachine T7 or SP6 transcription kit (Thermo Fisher Scientific Australia Pty Ltd, Scoresby, VIC, Australia) and injected into healthy stage V–VI oocytes at 0.2–20 ng per cell. Different amounts of RNA were used for different wild-type and mutant constructs, as well as to titrate expression levels to record over multiple days and maintaining consistent expression levels. Injected oocytes were incubated at 17 °C for 1–7 days in 50% Leibovitz’s L-15 medium (Gibco, Thermo Fisher Scientific Australia Pty Ltd, Scoresby, VIC, Australia), supplemented with 25 µg/mL gentamicin, 25 µg/mL streptomycin, and 2.5% fetal horse serum. Membrane currents were recorded 2–7 days after cRNA-injection under voltage-clamp at -60 mV (Axon Axoclamp 900 A, Molecular Devices, CA, USA) using two standard glass microelectrodes of 0.5–1 MΩ resistance when filled with 3 M KCl solution. Data were sampled at 2 kHz and filtered at 0.1 kHz using Clampex 10 software (Molecular Devices, CA, USA). A microperfusion system was used to allow fast extracellular solution exchange (bath volume = ~ 30 µL). All experiments were performed at room temperature (18–23 °C) in ND96 (96 mM NaCl, 2 mM KCl, 1.8 mM CaCl2, 2 mM MgCl2, 5 mM HEPES, pH 7.45). In solutions below pH 6.8, HEPES was replaced by MES. All solutions containing peptides contained 0.05% fatty acid free bovine serum albumin to decrease adsorptive losses of peptide to plasticware. For all channels tested, control current magnitudes between 500 and 9000 nA when tested using a conditioning pH of 7.45 and stimulating pH of 6 (except for the chimeras that were stimulated with pH 5) were used for data collection. Before recording any experiments, oocytes were stimulated multiple times with low pH to minimise and stabilise tachyphylaxis/desensitisation, which were then accounted for during analysis. Complete recovery of currents from Ma-3 induced modulation within 3 min of washout at all channels tested allowed for correction for tachyphylaxis/desensitisation during analyses.
(§2) Specific to this work, the standard protocol was for oocytes to be conditioned at pH 7.45 and channels stimulated every 60 s using a 5 s pH 5 or 6 application, unless stated otherwise. For all concentration-response data, peptides were applied for ~ 50 s between each low pH stimulus application. Activation curves were determined by conditioning oocytes at pH 8 (Fig. 2e − g; and Fig. 5a and b) or 7.45 (Fig. 6; and Supplementary Fig. 2d and c) for 55 s and applying low pH stimuli from 7.25 to 5.0 for 5 s. Steady-state desensitisation (SSD) was determined by applying conditioning solutions of pH values from 8 to 6 for 115 s prior to stimulation by a pH drop to 5 for 5 s. Ma-3 was only applied in the conditioning solution for activation and steady-state desensitisation curves in the presence of peptide. Control pH-dependence curves were determined in the absence of any Ma-3. When assessing the effect of Ma-3 on the rASIC1a: ASIC1b chimeras (C92 and C166; and for the comparative wild-type data), the conditioning pH was 7.45 and stimulating pH 5 (Fig. 3b). Specific details of the conditioning and stimulating pH are noted in each figure legend.
(§3) Data were analysed using pCLAMP-Clampfit software (Version 11, Molecular Devices, CA, USA) and GraphPad Prism 9.5 and 10.2.2 (GraphPad Software, San Diego, CA, USA). To obtain the Hill coefficient (nH) and half-maximal response (EC50, IC50, or pH50) the Hill equation was fitted to normalised concentration-response curves by using a non-linear fit to the data of a four-parameter logistic equation (“sigmoidal dose-response” in GraphPad Prism 9.5). […]

rASIC1a = target: T2, rASIC1a (Rattus norvegicus, UniProt P55926); assay: TEVC in Xenopus laevis oocytes expressing rASIC1a; assay type: cell-based; conditions: peptides applied at pH 7.45, stimulated at pH 6
T2 construct: expressed in transfected cells; host or cells: Xenopus laevis oocytes (cRNA injection)
T2 sequence (P55926 1-526): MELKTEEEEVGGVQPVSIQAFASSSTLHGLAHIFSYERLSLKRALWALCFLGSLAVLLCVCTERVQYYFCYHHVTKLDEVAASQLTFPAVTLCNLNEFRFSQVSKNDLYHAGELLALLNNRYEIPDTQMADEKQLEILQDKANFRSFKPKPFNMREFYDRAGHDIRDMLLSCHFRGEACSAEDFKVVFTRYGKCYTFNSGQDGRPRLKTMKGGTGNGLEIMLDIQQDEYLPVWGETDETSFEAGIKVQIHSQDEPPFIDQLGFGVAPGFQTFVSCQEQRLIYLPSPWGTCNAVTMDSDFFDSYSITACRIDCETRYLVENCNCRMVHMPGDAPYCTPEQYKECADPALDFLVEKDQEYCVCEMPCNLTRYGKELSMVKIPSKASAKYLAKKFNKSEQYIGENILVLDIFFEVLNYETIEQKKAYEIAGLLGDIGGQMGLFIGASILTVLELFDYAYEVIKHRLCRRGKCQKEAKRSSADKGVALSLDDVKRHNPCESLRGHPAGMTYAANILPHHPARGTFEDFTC
Protocol: as §1, §2, §3

[1] = target: T3, rat acid-sensing ion channel 1a (rat) (UniProt P55926)
T3 sequence: T2 sequence (P55926 1-526)

Substance	remaining activity at 1 µM (hASIC1b; pH 5 evoked currents)	remaining activity at 1 µM (hASIC1b; pH 6 evoked currents)	increase in IC50 (loss of potency) relative to wild-type Ma-3 (rASIC1a)	Hill slope (95% CI) (hASIC1b; conditioning pH 7.45, pH 6 evoked currents, potentiation, 95% CI)	fold increase of the IC50 of current inhibition against wild-type Ma-3 (conditioning pH 7.45, stimulus pH 6) [1]
H-SLKCYQAGKVVTCHRDMKFCYHNIGMPFRNLKLILQGCSSSCSETENNKCCSTDRCNK (disulfide 4-20, 13-38, 42-50, 51-56 (inferred)) [H6A]	98%	103%	greater than 10 fold	–	–
H-SLKCYQHGKVVTCARDMKFCYHNIGMPFRNLKLILQGCSSSCSETENNKCCSTDRCNK (disulfide 4-20, 13-38, 42-50, 51-56 (inferred)) [H13A]	74%	142%	–	–	–
H-SLKCYQHGKVVTCHADMKFCYHNIGMPFRNLKLILQGCSSSCSETENNKCCSTDRCNK (disulfide 4-20, 13-38, 42-50, 51-56 (inferred)) [R14A]	77%	157%	–	–	–
H-SLKCYQHGKVVTCHRDMKFCYHNAGMPFRNLKLILQGCSSSCSETENNKCCSTDRCNK (disulfide 4-20, 13-38, 42-50, 51-56 (inferred)) [I23A]	67%	159%	–	–	–
H-SLKCYQHGKVVTCHRDMKFCYHNIGMPARNLKLILQGCSSSCSETENNKCCSTDRCNK (disulfide 4-20, 13-38, 42-50, 51-56 (inferred)) [F27A]	96%	111%	greater than 10 fold	–	–
H-SLKCYQHGKVVTCHRDMKFCYHNIGMPFANLKLILQGCSSSCSETENNKCCSTDRCNK (disulfide 4-20, 13-38, 42-50, 51-56 (inferred)) [R28A]	97%	118%	greater than 10 fold	–	–
H-SLKCYQHGKVVTCHRDMKFCYHNIGMPFRALKLILQGCSSSCSETENNKCCSTDRCNK (disulfide 4-20, 13-38, 42-50, 51-56 (inferred)) [N29A]	76%	171%	–	–	–
H-SLKCYQHGKVVTCHRDMKFCYHNIGMPFRNAKLILQGCSSSCSETENNKCCSTDRCNK (disulfide 4-20, 13-38, 42-50, 51-56 (inferred)) [L30A]	116%	172%	–	–	–
H-SLKCYQHGKVVTCHRDMKFCYHNIGMPFRNLALILQGCSSSCSETENNKCCSTDRCNK (disulfide 4-20, 13-38, 42-50, 51-56 (inferred)) [K31A]	94%	140%	–	–	–
H-SLKCYQHGKVVTCHRDMKFCYHNIGMPFRNLKAILQGCSSSCSETENNKCCSTDRCNK (disulfide 4-20, 13-38, 42-50, 51-56 (inferred)) [L32A]	96%	100%	greater than 10 fold	–	–
H-SLKCYQHGKVVTCHRDMKFCYHNIGMPFRNLKLALQGCSSSCSETENNKCCSTDRCNK (disulfide 4-20, 13-38, 42-50, 51-56 (inferred)) [I33A]	100%	133%	greater than 10 fold	–	–
H-SLKCYQHGKVVTCHRDMKFCYHNIGMPFRNLKLIAQGCSSSCSETENNKCCSTDRCNK (disulfide 4-20, 13-38, 42-50, 51-56 (inferred)) [L34A]	98%	116%	greater than 10 fold	–	–
H-SLKCYQHGKVVTCHRDMKFCYHNIGMPFRNLKLILAGCSSSCSETENNKCCSTDRCNK (disulfide 4-20, 13-38, 42-50, 51-56 (inferred)) [Q35A]	71%	168%	–	–	–
H-SLKCYQHGKVVTCHRDMKFCYHNIGMPFRNLKLILQGCSAACSETENNKCCSTDRCNK (disulfide 4-20, 13-38, 42-50, 51-56 (inferred)) [S39A/S40A]	71%	165%	–	–	–
H-SLKCYQHGKVVTCHRDMKFCYHNIGMPFRNLKLILQGCSSSCSETANNKCCSTDRCNK (disulfide 4-20, 13-38, 42-50, 51-56 (inferred)) [E45A]	68%	163%	–	–	–
H-SLKCYQHGKVVTCHRDMKFCYHNIGMPFRNLKLILQGCSSSCSETENNACCSTDRCNK (disulfide 4-20, 13-38, 42-50, 51-56 (inferred)) [K48A]	70%	154%	–	–	–
H-SLKCYQHGKVVTCHRDMKFCYHNIGMPFRNLKLILQGCSSSCSETENNKCCSTDACNK (disulfide 4-20, 13-38, 42-50, 51-56 (inferred)) [R54A]	79%	145%	–	–	–
H-SLKCYQHGKVVTCHRDMKFCYHNIGMPFRNLKLILQGCSSSCSETENNKCCSTDRCNA (disulfide 4-20, 13-38, 42-50, 51-56 (inferred)) [K57A]	73%	147%	–	–	–
LKCYQHGKVVTCHRDMKFCYHNTGMPFRNLKLILQGCSSSCSETENNKCCSTDRCNK (disulfide 3-19, 12-37, 41-49, 50-55) [Ma-1, reference compound]	–	–	–	0.73–2.56	–
Ma-3 H6A (peptide)	–	–	–	–	> 10 fold

— article PMC11335189, “Revealing molecular determinants governing mambalgin-3 pharmacology at acid-sensing ion channel 1 variants” (Cellular and Molecular Life Sciences: CMLS, 2024)
